One assay deals with T1, human MER (Homo sapiens, UniProt Q12866).
T1 construct: purchased Invitrogen
T1 sequence (Q12866 21-999): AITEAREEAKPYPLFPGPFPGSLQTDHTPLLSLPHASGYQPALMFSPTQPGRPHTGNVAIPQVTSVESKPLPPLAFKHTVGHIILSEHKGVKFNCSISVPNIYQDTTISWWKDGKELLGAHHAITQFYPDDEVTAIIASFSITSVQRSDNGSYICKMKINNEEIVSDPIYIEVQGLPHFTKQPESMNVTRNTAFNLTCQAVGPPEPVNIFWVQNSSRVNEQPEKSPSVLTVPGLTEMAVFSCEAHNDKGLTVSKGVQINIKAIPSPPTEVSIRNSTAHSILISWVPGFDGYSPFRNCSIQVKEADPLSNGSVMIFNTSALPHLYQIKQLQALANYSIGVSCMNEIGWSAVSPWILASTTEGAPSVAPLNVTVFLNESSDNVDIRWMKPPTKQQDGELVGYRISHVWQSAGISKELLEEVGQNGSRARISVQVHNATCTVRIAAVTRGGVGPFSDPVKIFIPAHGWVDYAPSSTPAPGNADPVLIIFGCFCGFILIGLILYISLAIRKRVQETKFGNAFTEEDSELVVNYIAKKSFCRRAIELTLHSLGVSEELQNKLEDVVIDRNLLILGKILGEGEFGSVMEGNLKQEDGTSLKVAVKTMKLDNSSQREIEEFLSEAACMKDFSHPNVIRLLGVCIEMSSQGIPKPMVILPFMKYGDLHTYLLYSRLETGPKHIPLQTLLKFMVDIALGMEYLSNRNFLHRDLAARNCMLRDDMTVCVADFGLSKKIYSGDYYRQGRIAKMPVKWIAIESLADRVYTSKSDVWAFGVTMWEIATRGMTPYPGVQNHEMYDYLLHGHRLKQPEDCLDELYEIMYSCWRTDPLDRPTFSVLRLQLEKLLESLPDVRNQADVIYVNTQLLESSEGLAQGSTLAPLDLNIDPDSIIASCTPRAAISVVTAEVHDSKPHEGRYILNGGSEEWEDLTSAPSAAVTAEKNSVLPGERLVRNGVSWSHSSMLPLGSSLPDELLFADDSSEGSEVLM
Nature of the assay: HTRF KinEASE-TK biochemical potency assay, MER. The conditions noted are these: 1 nM MER, 700 μM ATP, 800 nM TK Substrate-biotin. In a few lines:
(§1)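 HTRF 665/620 nm read-out after streptavidin-XL665/anti-phosphotyrosine cryptate detection (1 h RT). Final reaction: 5 nM AXL or 1 nM TYRO3/MER, 800 nM TK substrate-biotin, 700 μM ATP, pH 7.4 HEPES buffer, 1% DMSO, 2 h RT, after 1 h enzyme–compound preincubation.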
(In TR-FRET formats the signal depends on donor and acceptor labels being close together.)

The target of another assay is T2, Axl (Homo sapiens, UniProt P30530).
T2 sequence (P30530 26-894): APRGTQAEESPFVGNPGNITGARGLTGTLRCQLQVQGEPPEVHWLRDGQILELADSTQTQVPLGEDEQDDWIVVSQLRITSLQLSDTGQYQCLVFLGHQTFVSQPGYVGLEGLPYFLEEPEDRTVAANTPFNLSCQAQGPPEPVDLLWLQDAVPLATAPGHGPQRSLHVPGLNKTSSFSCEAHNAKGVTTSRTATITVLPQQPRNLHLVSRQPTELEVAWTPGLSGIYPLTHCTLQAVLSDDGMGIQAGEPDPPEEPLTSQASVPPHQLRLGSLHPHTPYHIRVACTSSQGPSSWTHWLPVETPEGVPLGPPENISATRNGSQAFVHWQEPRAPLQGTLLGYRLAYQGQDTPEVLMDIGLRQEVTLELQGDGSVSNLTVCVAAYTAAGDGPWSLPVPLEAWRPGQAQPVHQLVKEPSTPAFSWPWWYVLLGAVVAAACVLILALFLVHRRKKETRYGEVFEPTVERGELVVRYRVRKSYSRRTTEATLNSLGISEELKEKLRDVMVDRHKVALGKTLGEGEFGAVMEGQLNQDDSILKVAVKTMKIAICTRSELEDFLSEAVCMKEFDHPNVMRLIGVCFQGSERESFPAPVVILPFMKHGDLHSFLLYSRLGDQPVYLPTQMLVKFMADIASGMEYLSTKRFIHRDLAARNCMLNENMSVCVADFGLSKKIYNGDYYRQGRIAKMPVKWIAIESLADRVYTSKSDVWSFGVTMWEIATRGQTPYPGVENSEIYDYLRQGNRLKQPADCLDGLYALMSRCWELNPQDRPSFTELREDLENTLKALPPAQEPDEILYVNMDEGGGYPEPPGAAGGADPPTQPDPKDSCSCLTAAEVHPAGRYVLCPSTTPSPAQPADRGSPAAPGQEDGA
Kind of assay: HTRF KinEASE-TK biochemical potency assay, AXL. Details: purchased Invitrogen. The following applies: 5 nM AXL, 700 μM ATP, 800 nM TK Substrate-biotin. Summed up:
as §1

pIC50: −log10 of the molar value.

On to `COc1cc(-c2n[nH]c3ncc(-c4ccc5c(c4)CCC(C)(N4CCC[C@H]4C)CC5)cc23)ccc1C(N)=O` (stereo partly drawn) [Example 53, 2-Methoxy-4-(5-(7-methyl-7-((R)-2-methylpyrrolidin-1-yl)-6,7,8,9-tetrahydro-5H-benzo[7]annulen-2-yl)-1H-pyrazolo[3,4-b]pyridin-3-yl)benzamide], for which the results for the pIC50 against human MER and against Axl were 6.00 to 7.00 and above 7.00, respectively.
Turning to `C[C@@H]1CCCN1C1(C)CCc2ccc(-c3cnc4[nH]nc(-c5ccc(C(N)=O)cc5)c4c3)cc2CC1` (stereo partly drawn) [Example 54, 4-(5-(7-Methyl-7-((R)-2-methylpyrrolidin-1-yl)-6,7,8,9-tetrahydro-5H-benzo[7]annulen-2-yl)-1H-pyrazolo[3,4-b]pyridin-3-yl)benzamide], the pIC50 on human MER and at Axl was above 7.00 each time.
For `Cc1cc(-c2n[nH]c3ncc(-c4ccc5c(c4)CC[C@@H](N4CCCC4)CC5)cc23)cc(C)c1C(=O)N1CCNCC1` [Example 55, 1-(2,6-Dimethyl-4-{5-[(7S)-7-(pyrrolidin-1-yl)-6,7,8,9-tetrahydro-5H-benzo[7]annulen-2-yl]-1H-pyrazolo[3,4-b]pyridin-3-yl}benzoyl)piperazine], the pIC50 is 6.00 to 7.00 against human MER and above 7.00 at Axl.
As to `Cc1cc(-c2n[nH]c3ncc(-c4ccc5c(c4)CC[C@@H](N4CCCC4)CC5)cc23)cc(Cl)c1C(=O)N1CCNCC1` [Example 56, 1-(2-Chloro-6-methyl-4-{5-[(7S)-7-(pyrrolidin-1-yl)-6,7,8,9-tetrahydro-5H-benzo[7]annulen-2-yl]-1H-pyrazolo[3,4-b]pyridin-3-yl}benzoyl)piperazine], the pIC50 against human MER and against Axl was above 7.00 in each case.
With `C[C@@H]1CCCN1C1(C)CCc2ccc(-c3cnc4[nH]nc(-c5ccc(C(C)(C)O)c(Cl)c5)c4c3)cc2CC1` (stereo partly drawn) [Example 57, 2-[2-Chloro-4-(5-{7-methyl-7-[(2R)-2-methylpyrrolidin-1-yl]-6,7,8,9-tetrahydro-5H-benzo[7]annulen-2-yl}-1H-pyrazolo[3,4-b]pyridin-3-yl)phenyl]propan-2-ol], the pIC50 against human MER is 6.00 to 7.00; against Axl it was above 7.00.
With `C[C@H]1CCCN1C1(C)CCc2ccc(-c3cnc4[nH]nc(-c5ccc(C(C)(C)O)c(Cl)c5)c4c3)cc2CC1` (stereo partly drawn) [Example 58, 2-[2-Chloro-4-(5-{7-methyl-7-[(2S)-2-methylpyrrolidin-1-yl]-6,7,8,9-tetrahydro-5H-benzo[7]annulen-2-yl}-1H-pyrazolo[3,4-b]pyridin-3-yl)phenyl]propan-2-ol], the figures for the pIC50 at human MER and at Axl were 6.00 to 7.00 and above 7.00, respectively.
In the same order, the values of `CC(C)(O)c1ccc(-c2n[nH]c3ncc(-c4cc5c(cn4)CCC(N4CCCC4)CC5)cc23)cc1Cl` (centres unmarked) [Example 59, 2-(2-Chloro-4-{5-[7-(pyrrolidin-1-yl)-5H,6H,7H,8H,9H-cyclohepta[c]pyridin-3-yl]-1H-pyrazolo[3,4-b]pyridin-3-yl}phenyl)propan-2-ol] are 6.00 to 7.00 and above 7.00.
For `CC(C)(O)c1ccc(-c2n[nH]c3ncc(-c4ccc5c(n4)CCC(N4CCCC4)CC5)cc23)cc1Cl` (centres unmarked) [Example 60, 2-(2-Chloro-4-{5-[7-(pyrrolidin-1-yl)-5H,6H,7H,8H,9H-cyclohepta[b]pyridin-2-yl]-1H-pyrazolo[3,4-b]pyridin-3-yl}phenyl)propan-2-ol], the pIC50 against human MER and against Axl was 6.00 to 7.00 in each case.
As for `CC(C)(O)c1ccc(-c2n[nH]c3ncc(-c4ccc5c(c4)CC4CCC(C5)C4N4CCCC4)cc23)cc1Cl` (centres unmarked) [Example 61, 2-(2-Chloro-4-{5-[13-(pyrrolidin-1-yl)tricyclo[8.2.1.0^3,8]trideca-3,5,7-trien-5-yl]-1H-pyrazolo[3,4-b]pyridin-3-yl}phenyl)propan-2-ol], the pIC50 at human MER and against Axl was below 6.00 in each case.
As for `C[C@@H]1CCCN1C1CCc2ccc(-c3cnc4[nH]nc(-c5ccc(C6(O)CCC6)c(Cl)c5)c4c3)cc2CC1` (stereo partly drawn) [Example 62, 1-[2-Chloro-4-(5-{7-[(2R)-2-methylpyrrolidin-1-yl]-6,7,8,9-tetrahydro-5H-benzo[7]annulen-2-yl}-1H-pyrazolo[3,4-b]pyridin-3-yl)phenyl]cyclobutan-1-ol], the pIC50 on human MER was 6.00 to 7.00; against Axl, above 7.00.
With `C[C@@H]1CCCN1C1CCc2ccc(-c3cnc4[nH]nc(-c5ccc(S(N)(=O)=O)c(Cl)c5)c4c3)cc2CC1` (stereo partly drawn) [Example 94, 2-Chloro-4-(5-(7-((R)-2-methylpyrrolidin-1-yl)-6,7,8,9-tetrahydro-5H-benzo[7]annulen-2-yl)-1H-pyrazolo[3,4-b]pyridin-3-yl)benzenesulfonamide], the pIC50 against human MER is 6.00 to 7.00; against Axl, above 7.00.
Consider `C[C@@H]1CCCN1C1(C)CCc2ccc(-c3cnc4[nH]nc(-c5ccc(S(N)(=O)=O)cc5)c4c3)cc2CC1` (stereo partly drawn) [Example 95, 4-(5-(7-Methyl-7-((R)-2-methylpyrrolidin-1-yl)-6,7,8,9-tetrahydro-5H-benzo[7]annulen-2-yl)-1H-pyrazolo[3,4-b]pyridin-3-yl)benzenesulfonamide], for which the pIC50 on human MER was 6.00 to 7.00; against Axl, above 7.00.
In the case of `CC(C)(O)c1ccc(-c2n[nH]c3ncc(-c4ccc5c(c4)CCC4(CCCN4)CC5)cc23)cc1Cl` (centres unmarked) [Example 96, 2-[2-Chloro-4-(5-{5,6,8,9-tetrahydrospiro[benzo[7]annulene-7,2′-pyrrolidin]-3-yl}-1H-pyrazolo[3,4-b]pyridin-3-yl)phenyl]propan-2-ol], the values for the pIC50 against human MER and against Axl were below 6.00 and above 7.00, respectively.
Turning to `C[C@@H]1CCCN1C1CCc2ccc(-c3cnc4[nH]nc(-c5ccc(C(C)(C)O)cn5)c4c3)cc2CC1` (stereo partly drawn) [Example 97, 2-[6-(5-{7-[(2R)-2-Methylpyrrolidin-1-yl]-6,7,8,9-tetrahydro-5H-benzo[7]annulen-2-yl}-1H-pyrazolo[3,4-b]pyridin-3-yl)pyridin-3-yl]propan-2-ol], the values for the pIC50 at human MER and at Axl were below 6.00 and above 7.00, respectively.
With `C[C@@H]1CCCN1C1(C)CCc2ccc(-c3cnc4[nH]nc(-c5cnc(C(C)(C)O)c(Cl)c5)c4c3)cc2CC1` (stereo partly drawn) [Example 98, 2-[3-Chloro-5-(5-{7-methyl-7-[(2R)-2-methylpyrrolidin-1-yl]-6,7,8,9-tetrahydro-5H-benzo[7]annulen-2-yl}-1H-pyrazolo[3,4-b]pyridin-3-yl)pyridin-2-yl]propan-2-ol], the pIC50 was 6.00 to 7.00 on human MER and above 7.00 against Axl.
On to `C[C@@H]1CCCN1C1(C)CCc2ccc(-c3cnc4[nH]nc(-c5ccc(C(=O)N[C@@H]6CCOC6)cc5)c4c3)cc2CC1` (stereo partly drawn) [Example 99, 4-(5-{7-Methyl-7-[(2R)-2-methylpyrrolidin-1-yl]-6,7,8,9-tetrahydro-5H-benzo[7]annulen-2-yl}-1H-pyrazolo[3,4-b]pyridin-3-yl)-N-[(3R)-oxolan-3-yl]benzamide], for which the values for the negative-log IC50 (pIC50) against human MER and against Axl were below 6.00 and above 7.00, respectively.

For orientation: pIC50 means the negative decadic logarithm of the IC50, by convention in mol/L. A low value points to a large IC50.
